Data as given in PubChem BioAssay AID330 (DTP/NCI, 2004).
Several values for one entry are separate records, joined by “and”; a condition that tells them apart may be missing. Equal values may be shown once. Toxic doses and inconclusive results are not listed. The calls were made as follows: active = survival T/C of 150% or more; inactive = T/C below 125% in these data.

System: P388 leukemia ip, CD2F1 mice, survival T/C
Assay: NCI In Vivo Anticancer Drug Screen. Data for tumor model P388 Leukemia (intraperitoneal) in CD2F1 (CDF1) mice
Settings: endpoint: median survival time, higher = longer survival
Method in brief: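 Mice carrying the transplanted tumor received test compound or vehicle. Survival was recorded in each group, and the value is the treated-group measurement divided by that of the vehicle-treated control group.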

[1] = dose: 60.0 mg/kg/injection, schedule: Q01DX005 (ip), vehicle: saline with Tween-80
[2] = dose: 50.0 mg/kg/injection, schedule: Q01DX005 (ip), vehicle: Klucel (hydroxypropylcellulose) (HPC)
[3] = dose: 100.0 mg/kg/injection, schedule: Q01DX005 (ip), vehicle: Klucel (hydroxypropylcellulose) (HPC)
[4] = dose: 200.0 mg/kg/injection, schedule: Q01DX005 (ip), vehicle: Klucel (hydroxypropylcellulose) (HPC)
[5] = dose: 50.0 mg/kg/injection, schedule: Q01DX009 (ip), vehicle: saline
[6] = dose: 50.0 mg/kg/injection, schedule: Q01DX005 (ip), vehicle: saline with Tween-80
[7] = dose: 100.0 mg/kg/injection, schedule: Q01DX005 (ip), vehicle: saline with Tween-80
[8] = dose: 200.0 mg/kg/injection, schedule: Q01DX005 (ip), vehicle: saline with Tween-80
[9] = dose: 12.5 mg/kg/injection, schedule: Q01DX009 (ip), vehicle: saline with Tween-80
[10] = dose: 25.0 mg/kg/injection, schedule: Q01DX009 (ip), vehicle: saline with Tween-80
[11] = dose: 50.0 mg/kg/injection, schedule: Q01DX009 (ip), vehicle: saline with Tween-80
[12] = dose: 100.0 mg/kg/injection, schedule: Q01DX009 (ip), vehicle: saline with Tween-80

Measured: T/C

O=[N+]([O-])c1ccc(SSc2ccc([N+](=O)[O-])s2)s1
inactive: dose: 100.0 mg/kg/injection, schedule: Q01DX001 (ip), vehicle: Klucel (hydroxypropylcellulose) (HPC) 106 % of control

CN(CCN1C(=O)c2c(Cl)c(Cl)c(Cl)c(Cl)c2C1=O)c1ccccc1
inactive: dose: 50.0 mg/kg/injection, schedule: Q01DX001 (ip), vehicle: saline with Tween-80 95 % of control | dose: 100.0 mg/kg/injection, schedule: Q01DX001 (ip), vehicle: saline with Tween-80 91 % of control | dose: 200.0 mg/kg/injection, schedule: Q01DX001 (ip), vehicle: saline with Tween-80 88 % of control

Nc1nnnn1-c1ccccc1Cl
inactive: dose: 100.0 mg/kg/injection, schedule: Q04DX003 (ip), vehicle: Klucel (hydroxypropylcellulose) (HPC) 105 % of control | dose: 200.0 mg/kg/injection, schedule: Q04DX003 (ip), vehicle: Klucel (hydroxypropylcellulose) (HPC) 100 % of control | dose: 400.0 mg/kg/injection, schedule: Q04DX003 (ip), vehicle: Klucel (hydroxypropylcellulose) (HPC) 101 % of control

CSc1nc(NC2OCC(O)C(O)C2O)c(C=O)c(=O)[nH]1 (stereo not given)
inactive: dose: 15.0 mg/kg/injection, schedule: Q01DX005 (ip), vehicle: saline with Tween-80 97 % of control | dose: 30.0 mg/kg/injection, schedule: Q01DX005 (ip), vehicle: saline with Tween-80 109 % of control | [1] 95 % of control

CNC(=O)OCc1ccc(NCCN(C)C)c2c(=O)c3cc(OS(=O)(=O)c4ccc(C)cc4)ccc3oc12
inactive: dose: 25.0 mg/kg/injection, schedule: Q01DX005 (ip), vehicle: water 90 % of control | dose: 50.0 mg/kg/injection, schedule: Q01DX005 (ip), vehicle: water 100 % of control | dose: 100.0 mg/kg/injection, schedule: Q01DX005 (ip), vehicle: water 102 % of control | dose: 200.0 mg/kg/injection, schedule: Q01DX005 (ip), vehicle: water 106 % of control

COc1ccc(/C(C)=N/[O-])cc1CS[n+]1ccccc1
inactive: dose: 50.0 mg/kg/injection, schedule: Q01DX005 (ip), vehicle: distilled water + Tween-80 + alcohol 104 % of control | dose: 100.0 mg/kg/injection, schedule: Q01DX005 (ip), vehicle: distilled water + Tween-80 + alcohol 95 % of control | dose: 200.0 mg/kg/injection, schedule: Q01DX005 (ip), vehicle: distilled water + Tween-80 + alcohol 104 % of control

N=C(N)SCc1cccc(C(=O)O)c1
inactive: [2] 110 % of control | [3] 105 % of control | [4] 96 % of control

CC1OCOC(CO)C(O)C1O (stereo not given)
inactive: dose: 50.0 mg/kg/injection, schedule: Q01DX005 (ip), vehicle: saline 101 % of control | dose: 100.0 mg/kg/injection, schedule: Q01DX005 (ip), vehicle: saline 105 % of control | dose: 200.0 mg/kg/injection, schedule: Q01DX005 (ip), vehicle: saline 105 % of control

C1=CC2CCC1C1CSCC21 (stereo not given)
inactive: dose: 12.5 mg/kg/injection, schedule: Q01DX009 (ip), vehicle: saline 98 % of control | dose: 25.0 mg/kg/injection, schedule: Q01DX009 (ip), vehicle: saline 100 % of control | [5] 87 % of control and 92 % of control

CC(C)CCNO
inactive: [6] 96 % of control | [7] 100 % of control | [8] 93 % of control

C=CCOC1CC(C)(O)Cc2cc3c(c(O)c21)C(=O)c1c(O)cc2c(c1C3=O)OC1OC2(C)C(O)C(N(C)C)C1O (stereo not given)
inactive: dose: 1.25 mg/kg/injection, schedule: Q01DX009 (ip), vehicle: other 114 % of control | dose: 2.5 mg/kg/injection, schedule: Q01DX009 (ip), vehicle: other 120 % of control | dose: 10.0 mg/kg/injection, schedule: Q01DX009 (ip), vehicle: other 123 % of control

O=[N+]([O-])C1CCC(O)C([N+](=O)[O-])C1 (stereo not given) (tested in a mixture with another compound)
inactive: dose: 6.25 mg/kg/injection, schedule: Q01DX009 (ip), vehicle: saline with Tween-80 100 % of control | [9] 96 % of control | [10] 99 % of control

C=C1C(=O)C[C@@H]2CC(C)(C)C[C@]12CC(=O)O
inactive: dose: 2.5 mg/kg/injection, schedule: Q01DX005 (ip), vehicle: water 90 % of control | dose: 5.0 mg/kg/injection, schedule: Q01DX005 (ip), vehicle: water 109 % of control | dose: 10.0 mg/kg/injection, schedule: Q01DX005 (ip), vehicle: water 97 % of control | dose: 20.0 mg/kg/injection, schedule: Q01DX005 (ip), vehicle: water 98 % of control | dose: 40.0 mg/kg/injection, schedule: Q01DX005 (ip), vehicle: water 101 % of control

Cc1ncc([N+](=O)[O-])n1Cc1nnc(N)s1
inactive: dose: 50.0 mg/kg/injection, schedule: Q01DX009 (ip), vehicle: Klucel (hydroxypropylcellulose) (HPC) 107 % of control | dose: 100.0 mg/kg/injection, schedule: Q01DX009 (ip), vehicle: Klucel (hydroxypropylcellulose) (HPC) 107 % of control | dose: 200.0 mg/kg/injection, schedule: Q01DX009 (ip), vehicle: Klucel (hydroxypropylcellulose) (HPC) 108 % of control

COc1ccc(CSCC(NC(=O)OC(C)(C)C)C(=O)O)cc1 (stereo not given)
inactive: [2] 105 % of control | [3] 97 % of control | [4] 100 % of control

CCCCCCOC(=O)Nc1nnc(SSC2=NN=CC2NC(=O)OCCCCCC)s1 (stereo not given)
inactive: dose: 100.0 mg/kg/injection, schedule: Q01DX001 (ip), vehicle: saline 91 % of control | dose: 200.0 mg/kg/injection, schedule: Q01DX001 (ip), vehicle: saline 90 % of control | dose: 400.0 mg/kg/injection, schedule: Q01DX001 (ip), vehicle: saline 90 % of control

COc1ccc(-n2c(-c3ccc(Cl)cc3)csc2=N)c(OC)c1
inactive: [10] 97 % of control | [11] 106 % of control | [5] 114 % of control | [12] 100 % of control | dose: 100.0 mg/kg/injection, schedule: Q01DX009 (ip), vehicle: saline 109 % of control

CCNc1nc(NC(C)C)nc(N2CCc3ccccc3C2)n1
inactive: [6] 106 % of control | [7] 117 % of control | [8] 110 % of control

Oc1ccc(/C=N/N=C/c2ccc(O)c(O)c2)cc1O
inactive: [6] 121 % of control | [7] 106 % of control and 119 % of control | [8] 113 % of control | dose: 400.0 mg/kg/injection, schedule: Q01DX005 (ip), vehicle: saline with Tween-80 121 % of control

CCOC(=O)c1c(C)c(C(=O)OCC)n2cnc(C(=O)OC)cc12
inactive: dose: 25.0 mg/kg/injection, schedule: Q04DX002 (ip), vehicle: saline with Tween-80 97 % of control | dose: 50.0 mg/kg/injection, schedule: Q04DX002 (ip), vehicle: saline with Tween-80 106 % of control and 94 % of control | dose: 100.0 mg/kg/injection, schedule: Q04DX002 (ip), vehicle: saline with Tween-80 103 % of control and 122 % of control and 97 % of control | dose: 200.0 mg/kg/injection, schedule: Q04DX002 (ip), vehicle: saline with Tween-80 104 % of control (2×) and 97 % of control | dose: 400.0 mg/kg/injection, schedule: Q04DX002 (ip), vehicle: saline with Tween-80 113 % of control

CN(C)c1ccc(N=C2C=CC(=[N+](C)C)C=C2)cc1
inactive: dose: 3.13 mg/kg/injection, schedule: Q01DX009 (ip), vehicle: Klucel (hydroxypropylcellulose) (HPC) 90 % of control | dose: 6.25 mg/kg/injection, schedule: Q01DX009 (ip), vehicle: Klucel (hydroxypropylcellulose) (HPC) 93 % of control | dose: 12.5 mg/kg/injection, schedule: Q01DX009 (ip), vehicle: Klucel (hydroxypropylcellulose) (HPC) 101 % of control | dose: 25.0 mg/kg/injection, schedule: Q01DX009 (ip), vehicle: Klucel (hydroxypropylcellulose) (HPC) 114 % of control

COC(=O)/C=C1/C(=O)N(C)c2ccccc21
inactive: [9] 98 % of control and 102 % of control | [10] 102 % of control and 111 % of control and 90 % of control | [11] 100 % of control and 106 % of control and 92 % of control | [12] 106 % of control and 110 % of control and 113 % of control

O=C1CSC(c2ccoc2)N1N1C(=O)CSC1c1ccoc1 (stereo not given)
inactive: [6] 90 % of control | [7] 87 % of control | [8] 90 % of control

CC(=O)OCC1OC(OC2CC(=O)C[C@H]3C(=O)N(c4ccccc4)C(=O)[C@@H]23)C(OC(C)=O)C(OC(C)=O)C1OC(C)=O (stereo not given in full)
inactive: [1] 102 % of control | dose: 120.0 mg/kg/injection, schedule: Q01DX005 (ip), vehicle: saline with Tween-80 103 % of control | dose: 240.0 mg/kg/injection, schedule: Q01DX005 (ip), vehicle: saline with Tween-80 92 % of control
